The compounds below were run against T1, Human factor D (Homo sapiens, UniProt P00746) (assay: Human Factor D Assay). Settings: Human factor D 80 nM, substrate Z-L-Lys-SBzl and DTNB, pH 7.5.
T1 construct: purified from human serum; purchased Complement Technology, Inc; host or cells: human serum
T1 sequence (P00746 26-253): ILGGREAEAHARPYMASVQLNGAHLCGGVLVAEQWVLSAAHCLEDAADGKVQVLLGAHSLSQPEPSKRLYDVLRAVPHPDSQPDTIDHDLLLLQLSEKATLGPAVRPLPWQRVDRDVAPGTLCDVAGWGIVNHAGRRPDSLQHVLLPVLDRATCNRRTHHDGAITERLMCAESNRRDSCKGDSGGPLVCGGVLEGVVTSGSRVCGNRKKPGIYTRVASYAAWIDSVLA
Assay type: biochemical
Experimental: Other standard factor D inhibition assays are also available.
Human factor D (purified from human serum, Complement Technology, Inc.) at 80 nM final concentration is incubated with test compound at various concentrations for 5 minutes at room temperature in 50 mM Tris, 1M NaCl, pH 7.5. A synthetic substrate Z-L-Lys-SBzl and DTNB (Ellman's reagent) are added to final concentrations of 100 μM each. The increase in color is recorded at OD405 nm in a microplate in kinetic mode over 30 minutes with 30 second time points in a spectrofluorimeter. IC50 values are calculated by non-linear regression from the percentage of inhibition of complement factor D activity as a function of test compound concentration.
`CCOP(=O)(O)c1nn(CC(=O)N2C[C@H](F)C[C@H]2C(=O)NCc2cccc(Cl)c2F)c2cnccc12` [Compound 60, ethyl hydrogen 1-(2-((2S,4R)-2-(3-chloro-2-fluorobenzylcarbamoyl)-4-fluoropyrrolidin-1-yl)-2-oxoethyl)-1H-pyrazolo[3,4-c]pyridin-3-ylphosphonate] gave an IC50 of 1000 to 10000 nM.
For `CC(=O)c1cn(CC(=O)N2C[C@H](F)C[C@H]2c2ncc(-c3cccc(Br)n3)[nH]2)c2ccccc12` [Compound 13, 2-(3-acetyl-1H-indol-1-yl)-1-((2S,4R)-2-(5-(6-bromopyridin-2-yl)-1H-imidazol-2-yl)-4-fluoropyrrolidin-1-yl)ethanone], the IC50 was 1000 to 10000 nM.
Compound `CCOP(=O)(OCC)c1nn(CC(=O)N2C[C@H](F)C[C@H]2C(=O)NCc2cccc(Cl)c2F)c2cnccc12` [Compound 53, diethyl 1-(2-((2S,4R)-2-(3-chloro-2-fluorobenzylcarbamoyl)-4-fluoropyrrolidin-1-yl)-2-oxoethyl)-1H-pyrazolo[3,4-c]pyridin-3-ylphosphonate] has an IC50 of 1000 to 10000 nM.
`COc1cccc2c1c(C(C)=O)cn2CC(=O)N1C[C@H](F)C[C@H]1C(=O)Nc1cccc(-c2ccccc2Cl)c1F` [Compound 96, (2S,4R)-1-(2-(3-acetyl-4-methoxy-1H-indol-1-yl)acetyl)-N-(2′-chloro-2-fluorobiphenyl-3-yl)-4-fluoropyrrolidine-2-carboxamide] gave an IC50 of 1000 to 10000 nM.
`CC(=O)c1cn(CC(=O)N2CC3(C[C@H]2C(=O)Nc2cccc(OC(F)(F)F)c2F)OCCO3)c2cc(O)ccc12` [Compound 41, (S)-7-(2-(3-acetyl-6-hydroxy-1H-indol-1-yl)acetyl)-N-(2-fluoro-3-(trifluoromethoxy)phenyl)-1,4-dioxa-7-azaspiro[4.4]nonane-8-carboxamide] was tested, and the IC50 was 1000 to 10000 nM.
For `NC(c1cn(CC(=O)N2C[C@H](F)C[C@H]2C(=O)NCc2cccc(Cl)c2F)c2ccccc12)C(F)(F)F` (stereo partly drawn) [Compound 78, (2S,4R)-1-(2-(3-(1-amino-2,2,2-trifluoroethyl)-1H-indol-1-yl)acetyl)-N-(3-chloro-2-fluorobenzyl)-4-fluoropyrrolidine-2-carboxamide], the IC50 was 1000 to 10000 nM.
Compound `CC(=O)c1cn(CC(=O)N2C[C@H](F)C[C@H]2c2ncc(-c3cccc(Br)n3)[nH]2)c2cc(O)ccc12` [Compound 40, 2-(3-acetyl-6-hydroxy-1H-indol-1-yl)-1-((2S,4R)-2-(5-(6-bromopyridin-2-yl)-1H-imidazol-2-yl)-4-fluoropyrrolidin-1-yl)ethanone] has an IC50 of 1000 to 10000 nM.
For `NC(=O)n1cc(NC(=O)N2C[C@H](F)C[C@H]2c2ncc(-c3cccc(Cl)c3)[nH]2)c2ccccc21` [Compound 10, 3-((2S,4R)-2-(5-(3-chlorophenyl)-1H-imidazol-2-yl)-4-fluoropyrrolidine-1-carboxamido)-1H-indole-1-carboxamide], the IC50 was 1000 to 10000 nM.
In the case of `[2H]C([2H])(NC(=O)[C@@H]1C[C@@H](F)CN1C(=O)Cn1nc(C(N)=O)c2ccncc21)c1cccc(Cl)c1F` [Compound 128, (2S,4R)-1-(2-(3-carbamoyl-1H-pyrazolo[3,4-c]pyridin-1-yl)acetyl)-4-fluoropyrrolidine-2-carboxamide, N-(3-chloro-2-fluorophenylmethyl-d2)], the IC50 is reported as under 1000 nM.
`CC(=O)c1ccc(CC(=O)N2C[C@H](F)C[C@H]2C(=O)NCc2cccc(Cl)c2F)c2ccccc12` [Compound 58, (2S,4R)-1-(2-(4-acetylnaphthalen-1-yl)acetyl)-N-(3-chloro-2-fluorobenzyl)-4-fluoropyrrolidine-2-carboxamide] gave an IC50 of 1000 to 10000 nM.
In the case of `CC(=O)c1cn(CC(=O)N2C[C@H](F)C[C@H]2C(=O)NC2CCc3c(Cl)cccc32)c2ccccc12` (stereo partly drawn) [Compound 44, (2S,4R)-1-(2-(3-acetyl-1H-indol-1-yl)acetyl)-N-(4-chloro-2,3-dihydro-1H-inden-1-yl)-4-fluoropyrrolidine-2-carboxamide], the IC50 is reported as 1000 to 10000 nM.
Compound `NC(=O)n1cc(NC(=O)[C@@H]2CCC[C@H]2C(=O)NCc2cccc(Cl)c2F)c2ccccc21` [Compound 23, (1R,2R)-N1-(1-carbamoyl-1H-indol-3-yl)-N2-(3-chloro-2-fluorobenzyl)cyclopentane-1,2-dicarboxamide] has an IC50 of 1000 to 10000 nM.
`CC(=O)c1cn(CC(=O)N2C[C@H](F)C[C@H]2C(=O)NC2CCc3ccccc32)c2ccccc12` (some centres unmarked) [Compound 42] gave an IC50 of 1000 to 10000 nM.
`NC(=O)n1cc(NC(=O)N2C[C@H](F)C[C@H]2c2nc3cc(Cl)ccc3[nH]2)c2ccccc21` [Compound 14, 3-((2S,4R)-2-(5-chloro-1H-benzo[d]imidazol-2-yl)-4-fluoropyrrolidine-1-carboxamido)-1H-indole-1-carboxamide] gave an IC50 of 1000 to 10000 nM.
Work on `CC(=O)c1cn(CC(=O)N2[C@@H]3CCCC[C@@H]3C[C@H]2C(=O)NCc2cccc(Cl)c2F)c2cc(O)ccc12` [Compound 66, (2S,3aR,7aR)-1-(2-(3-acetyl-6-hydroxy-1H-indol-1-yl)acetyl)-N-(3-chloro-2-fluorobenzyl)octahydro-1H-indole-2-carboxamide] yielded an IC50 of 1000 to 10000 nM.
With `O=C(NCc1cccc(Cl)c1F)[C@@H]1C[C@@H](F)CN1C(=O)CC1=Nc2ccccc2S(=O)(=O)N1` [Compound 49, (2S,4R)-N-(3-chloro-2-fluorobenzyl)-1-(2-(1,1-dioxido-2H-benzo[e][1,2,4]thiadiazin-3-yl)acetyl)-4-fluoropyrrolidine-2-carboxamide] the IC50 was 1000 to 10000 nM.
For `NC(=O)n1cc(NC(=O)N2c3ccccc3C[C@H]2C(=O)NCc2cccc(Cl)c2F)c2ccccc21` [Compound 2, (S)-N1-(1-carbamoyl-1H-indol-3-yl)-N2-(3-chloro-2-fluorobenzyl)indoline-1,2-dicarboxamide], the IC50 was 1000 to 10000 nM.
Work on `C=C[C@@H]1C[C@]1(NC(=O)[C@@H]1C[C@@H](F)CN1C(=O)Cn1cc(C(C)=O)c2ccc(O)cc21)C(=O)NS(=O)(=O)C1CC1` [Compound 64, (2S,4R)-1-(2-(3-acetyl-6-hydroxy-1H-indol-1-yl)acetyl)-N-((1R,2S)-1-(cyclopropylsulfonyl-carbamoyl)-2-vinylcyclopropyl)-4-fluoropyrrolidine-2-carboxamide] yielded an IC50 of 1000 to 10000 nM.
In the case of `CS(=O)(=O)N1CCc2c(n(CC(=O)N3C[C@H](F)C[C@H]3C(=O)NCc3cccc(Cl)c3F)c3ccccc23)C1` [Compound 69, (2S,4R)-N-(3-chloro-2-fluorobenzyl)-4-fluoro-1-(2-(2-(methylsulfonyl)-3,4-dihydro-1H-pyrido[3,4-b]indol-9(2H)-yl)acetyl)pyrrolidine-2-carboxamide], the IC50 is reported as 1000 to 10000 nM.
In the case of `CC(=NC#N)c1cn(CC(=O)N2C[C@H](F)C[C@H]2C(=O)NCc2cccc(Cl)c2F)c2ccccc12` [Compound 32, (2S,4R)-N-(3-chloro-2-fluorobenzyl)-1-(2-(3-(1-(cyanoimino)ethyl)-1H-indol-1-yl)acetyl)-4-fluoropyrrolidine-2-carboxamide], the IC50 is reported as 1000 to 10000 nM.
`NC(=O)n1cc(NC(=O)N2C[C@H](F)C[C@H]2c2ncc(-c3cccc(Br)n3)[nH]2)c2ccccc21` [Compound 12, 3-((2S,4R)-2-(5-(6-bromopyridin-2-yl)-1H-imidazol-2-yl)-4-fluoropyrrolidine-1-carboxamido)-1H-indole-1-carboxamide] was tested, and the IC50 was 1000 to 10000 nM.
`[2H]C([2H])(NC(=O)[C@@H]1C[C@H]2C[C@H]2N1C(=O)Cn1nc(C(N)=O)c2ccncc21)c1cccc(Cl)c1F` [Compound 127, (1R,3S,5R)-2-(2-(3-carbamoyl-1H-pyrazolo[3,4-c]pyridin-1-yl)acetyl)-2-azabicyclo[3.1.0]hexane-3-carboxammide, N-(3-chloro-2-fluorophenylmethyl-d2)] showed an IC50 of under 1000 nM.
With `CCOP(=O)(OCC)c1cc(Cl)cc(NC(=O)[C@@H]2C[C@@H](F)CN2C(=O)Cn2cc(C(C)=O)c3ccccc32)c1` [Compound 59, diethyl 3-((2S,4R)-1-(2-(3-acetyl-1H-indol-1-yl)acetyl)-4-fluoropyrrolidine-2-carboxamido)-5-chlorophenylphosphonate] the IC50 was 1000 to 10000 nM.

— patent publication US20160361329A1, “COMPOUNDS FOR TREATMENT OF COMPLEMENT MEDIATED DISORDERS” (Achillion Pharmaceuticals, Inc., priority 2014, published 2016)
